From PMC4199632, “Exploring the Anti-Cancer Activity of Novel Thiosemicarbazones Generated through the Combination of Retro-Fragments: Dissection of Critical Structure-Activity Relationships” (PLoS ONE, 2014) come the findings set out here.

SMILES strings stand for the structures.

The subject of assay [1] is normal human dermal fibroblast (NHDF) cells. Nature of the assay: Proliferation assay (MTS, 96 h), normal mortal cells. The following applies: 96 h incubation, mean ±SD (3 experiments). The class given is cell-based. The method, boiled down:
(§1)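 HCT116 p53+/+, HCT116 p53−/− and NHDF cells were seeded 24 h before a 96 h compound exposure at 37 °C, with final DMSO <0.05%. Viability was read by MTS absorbance at 490 nm after 1 h; IC50 was the concentration reducing absorbance to 50% of untreated control.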

For assay [2], the system named is HCT116 p53+/+ colon cancer cells. Nature of the assay: Proliferation assay (MTS, 96 h). Format: cell-based, human. The following applies: for IC50: Homo sapiens, HCT-116, 96 h incubation, MTS, mean ±SD (3 experiments); for Therapeutic index NHDF vs. HCT116 p53+/+: NHDF cell IC50 divided by HCT116 p53+/+ IC50. The method, boiled down: as §1
In assay [3] the test system is HCT116 p53−/− colon cancer cells. Nature of the assay: Proliferation assay (MTS, 96 h). The class given is cell-based, human. The following applies: for IC50: Homo sapiens, HCT-116, 96 h, 96 h incubation, MTS, mean ±SD (3 experiments); for Therapeutic index NHDF vs. HCT116 p53−/−: NHDF cell IC50 divided by HCT116 p53−/− IC50. The method, boiled down: as §1
Assay [4] is described as follows: Ascorbate oxidation assay (iron complexes). The class given is biochemical. Conditions: iron complex; for Ascorbate oxidation (% of the control): FeIII 10 µM, ascorbate 100 µM. How it is done:
The ability of the iron complexes of the novel ligands to mediate the oxidation of the physiological substrate, ascorbate, was examined using established methods, [18], [22], [52], [53]. Ascorbic acid (100 µM) was prepared immediately prior to each experiment and was incubated in the presence of Fe^III (10 µM; as FeCl3), the chelator (1–60 µM) and a 50-fold molar excess of citrate (500 µM). The absorbance at 265 nm was measured after 10 and 40 min and the difference in absorbance at these time points was calculated. The results of these experiments were expressed as iron-binding equivalents (IBE) due to the different denticity of the chelators examined. The chelators, Dp44mT, DFO and ethylenediaminetetraacetic acid (EDTA) were used as controls as the ability of their iron complexes to oxidize ascorbate has been extensively characterized, [15], [52], [53].
The ability of the iron complexes of the novel TSCs to catalyze the oxidation of the physiological substrate, ascorbate, was important to assess as redox cycling may play a critical role in their anti-proliferative activity, [15], [18], [52], [53]. Thus, the oxidation of ascorbate mediated by the iron complexes of series 1–6 were examined in comparison to the iron complexes of the control compounds, DFO, EDTA and Dp44mT, as the ability of the latter to oxidize ascorbate is well characterized, [15], [52], [53], [68]. The results were expressed as a percentage of the control (no chelator) at iron-binding equivalents (IBEs) of 0.1 (excess “free” iron), 1 (iron-chelator complexes with a fully filled coordination sphere), or 3 (excess free chelator), due to the different denticity of the chelators examined (Fig. 10).
Figure 10 Effect of the iron complexes of (A) series 1, (B) series 2, (C) series 3, (D) series 4, (E) series 5 and (F) series 6 chelators, relative to DFO, Dp44mT and EDTA, on ascorbate oxidation. Chelators at iron-binding equivalent (IBE) ratios of 0.1, 1, and 3 were incubated in the presence of Fe^III (10 µM) and ascorbate (100 µM). The UV-Vis absorbance at 265 nm was recorded after 10 and 40 min, and the difference between the time points was calculated. Results are mean ±SD (3 experiments).

A word on the IC50: it is the concentration that inhibits the measured activity by half. For `S=C(NN=C(c1ccccn1)c1ccccn1)N1CCN(c2cnccn2)CC1` [1e], the IC50 in assay [1] (Homo sapiens, NHDF, 96 h) worked out at 14 ± 3 nM; in assay [2], 38 ± 3 nM; in assay [3] it was 31 ± 3 nM. Besides, the “Ascorbate oxidation (% of the control)” value in assay [4] (IBE 3) is 200–265%.

As to `CCN1CCN(C(=S)N/N=C/c2ccc3ccccc3n2)CC1` [2a], the IC50 in assay [1] (Homo sapiens, NHDF, 96 h) stood at 9620 ± 1800 nM; in assay [2], 1440 ± 690 nM; in assay [3], 3550 ± 1230 nM. Also, the “Ascorbate oxidation (% of the control)” value in assay [4] (IBE 3) was 200–265%.

In assay [1], `S=C(N/N=C/c1ccc2ccccc2n1)N1CCN(c2ccccc2)CC1` [2b] displayed an IC50 of 33 ± 7 nM. For the same compound, in assay [2], the midpoint of inhibition, the IC50, lay at 42 ± 3 nM and the “Therapeutic index NHDF vs. HCT116 p53+/+” value is given as 0.8. For the same compound, in assay [3], the IC50 is 90 ± 40 nM and the “Therapeutic index NHDF vs. HCT116 p53−/−” value stood at 0.4.

For the compound `CN(C(=S)N/N=C/c1ccc2ccccc2n1)C1CCCCC1` [2f], in assay [1] (Homo sapiens, NHDF, 96 h), the IC50 was found to be 15 ± 5 nM. Besides, in assay [2], the IC50 amounted to 26 ± 1 nM and the “Therapeutic index NHDF vs. HCT116 p53+/+” value is 0.6. In addition, in assay [3], the IC50 is 35 ± 3 nM and the “Therapeutic index NHDF vs. HCT116 p53−/−” value turned out to be 0.4.

Regarding `CN(C(=S)N/N=C/c1cnc2ccccc2n1)C1CCCCC1` [5f], the IC50 is 500 ± 210 nM in assay [1] (Homo sapiens, NHDF, 96 h); 1240 ± 450 nM in assay [2]; 1020 ± 540 nM in assay [3]. In assay [4] (IBE 3), the “Ascorbate oxidation compared with controls” value is “decreased ascorbate oxidation relative to the control”.

Take `CN(C(=S)N/N=C/c1ccccc1O)C1CCCCC1` [6f]: the IC50 was greater than 25000 nM in assay [1] (Homo sapiens, NHDF, 96 h); greater than 25000 nM in assay [2]; greater than 25000 nM in assay [3]. Moreover, the “Ascorbate oxidation compared with controls” value in assay [4] (IBE 3) is “decreased ascorbate oxidation relative to the control”.

In the case of `CC(=O)N(O)CCCCCNC(=O)CCC(=O)N(O)CCCCCNC(=O)CCC(=O)N(O)CCCCCN` [DFO, desferrioxamine, reference compound], the 50% inhibitory concentration (IC50) in assay [1] (Homo sapiens, NHDF, 96 h) was greater than 25000 nM; in assay [2], greater than 25000 nM; in assay [3] it was greater than 25000 nM. Further, the results for the “Ascorbate oxidation (% of the control)” value in assay [4] (IBE 1) and in assay [4] (IBE 3) were 47% and 23%, respectively.

`CN(C)C(=S)NN=C(c1ccccn1)c1ccccn1` [Dp44mT, di-2-pyridylketone 4,4-dimethyl-3-thiosemicarbazone, reference compound]: the IC50 worked out at 15400 ± 5060 nM in assay [1] (Homo sapiens, NHDF, 96 h); 2 ± 1 nM in assay [2]; 5 ± 2 nM in assay [3]. Besides, the “Therapeutic index NHDF vs. HCT116 p53+/+” value in assay [2] was found to be 7690. The “Therapeutic index NHDF vs. HCT116 p53−/−” value in assay [3] is on record as 3076. Further, the “Ascorbate oxidation (% of the control)” value in assay [4] (IBE 0.1) is 129%; in assay [4] (IBE 1), 203%; in assay [4] (IBE 3), 196%.
